Source: patent publication US20220251124A1, “3,5-BIS(PHENYL)-1H-HETEROARYL DERIVATIVES AS MEDICAMENTS” (INSTITUTE OF BIOTECHNOLOGY CAS, V.V.I., priority 2019, published 2022)

How the values were obtained:
MCF7 [1] = experiment: cell cycle distribution, Vybrant DyeCycle Violet, flow cytometry; type: cell-based; conditions: 1 μM
Protocol: (§1) In order to define the effect on cellular level, we investigated the effect of compound 1 and 2 at non-cytotoxic concentrations of the drugs (1 μM) on cell cycle. Cells were cultivated with the compounds for 24 and 48 hrs and then stained with Vybrant DyeCycle VioletReady Flow reagent (ThermoFisher Scientific) that binds to DNA and analyzed by Flow cytometry and Kaluza program to define the proportions of G1,S and G2/M phases of cell cycle. It is evident that both compounds lead to accumulation of cells in G1 phase if the cell cycle, which become more prominent at later time points (see Table 12, 13).

MDA-MB-231 [2] = experiment: as above; type: cell-based; conditions: 1 μM
Protocol: as §1

BxPC3 = experiment: annexin V/PI staining, cell death induction, 48 hrs; type: cell-based
Protocol: (§2) This effect seems to be based mainly on the cytostatic effect of compound 1. To define the ability to kill cells, cell death-inducing potency (cytotoxic efficacy) of DFX and compound 1 have been tested via annexin V/PI staining commonly used as a measure of apoptotic/necrotic cell death. Briefly, cells were seeded in 12-well plate at 100,000 per well, incubated with the selected compounds for 48 hours, then floating cells were spun, adherent cells trypsinized and spun as well followed by the staining with AnnexinV-FITC and PI probes. Cells were then washed with PBS and measured via Fluorescence Activated Sorter.

OVCAR = experiment: as above; type: cell-based
Protocol: as §2

non malignant cells MRC5 = experiment: as above; type: cell-based
Protocol: as §2

non-malignant HFP1 cells = experiment: as above; type: cell-based; conditions: for dead cells (AnnexinV/PI): 48 hrs, HFP1
Protocol: as §2

MCF7 cells = experiment: oxygen consumption rate (OCR), Seahorse XFe96; type: cell-based; conditions: for Oxygen consumption rate, Basal / Oxygen consumption rate, Maximal / Oxygen consumption rate, Proton-leak: MCF7
Protocol: For Seahorse analysis, 20.000 cells were seeded in 96 well plates and added immediately before measurement (addition, Table 6) or incubated with compound 1 for 1 hour (preincubation, Table 7). Afterwards, oxygen consumption rate (OCR) was measured in three cycles of 3 minutes preceded by 3 minutes of mixing, using a Seahorse XFe96 analyzer (Agilent). Results express the mean values of the three cycles.

MCF7 [3] = experiment: mitochondrial ROS, mitoSOX probe, flow cytometry; type: cell-based
Protocol: (§3) The effect of compound 1 on generation of mitochondrial reactive oxygen species (ROS) was evaluated in MCF7 and MDA-MB-231 cells using a specific mitochondrially targeted probe mitoSOX (ThermoFisher Scientific) that measures mostly mitochondrial superoxide and upon binding becomes fluorescent. Cells treated with compound 1 for the described time interval were stained with the probe and then analyzed via Flow cytometry.

MDA-MB-231 [4] = experiment: mitochondrial ROS, mitoSOX probe, flow cytometry; type: cell-based
Protocol: as §3

MCF7 [5] = experiment: cellular ROS, DCF-DA probe, flow cytometry; type: cell-based; conditions: 5 μM
Protocol: (§4) The effect of compound 1 on generation of cellular reactive oxygen species (ROS) was evaluated in MCF7 and MDA-MB-231 cells using a cell permeable ROS probe 2′,7′-dichlorodihydrofluorescein diacetate (DCF-DA; Sigma-Aldrich) that measures several reactive species and becomes fluorescent upon oxidation. Cells treated with compound 1 or compound 2 (5 μM) for the described time interval were stained with the probe and then analyzed via Flow cytometry.

MDA-MB-231 [6] = experiment: cellular ROS, DCF-DA probe, flow cytometry; type: cell-based; conditions: 5 μM
Protocol: as §4

MCF7 [7] = experiment: annexin V/PI staining, cell death induction, 48 hrs; type: cell-based
Protocol: as §2
Since compound 1 is an iron chelator, we have evaluated the effect of pre-loading compound 1 with iron at a 2:1 ratio and then applying it to the cells, followed by measurement of cell death using the Annexin V/PI staining as in example 4.

[8] = tested on: triple negative breast cancer cells (MDA-MB-231) xenograft; experiment: tumor growth in xenograft model; type: in vivo, NOD/SCID gamma mice; conditions: for relative tumor size compared to day 0: 2/week
Protocol: The effect of compound 1 on tumor growth in vivo was assessed in a xenograft model of triple negative breast cancer cells (MDA-MB-231) injected into NOD/SCID gamma mice. 1×10^6 cells were injected subcutaneously into each mouse. When the tumors were approximately 10 mm^3 in volume, the animals were randomly divided in two groups and injected intra-peritoneally with either compound 1 (2 mg/kg in corn oil) or vehicle (2.5% DMSO in corn oil), twice per week for 21 days. Tumor size was determined by ultrasound using a Vevo 3100 Preclinical Imaging System (VisualSonics).

[9] = 5 min, MDA-MB-231 (0 min = 100)

SMILES: O=C(NCCCCCCCCCC[P+](c1ccccc1)(c1ccccc1)c1ccccc1)c1ccc(-n2nc(-c3ccccc3O)nc2-c2ccccc2O)cc1 [Compound 1, (10-(4-(3,5-bis(2-hydroxyphenyl)-1H-1,2,4-triazol-1-yl)benzamido)decyl) triphenylphosphonium Chloride]
- proportion of cells in G1 (MCF7 [1]; 24 hrs): 82.8 (1.6)
- proportion of cells in G2 (MCF7 [1]; 24 hrs): 13.2
- proportion of cells in S (MCF7 [1]; 24 hrs): 4.0
- proportion of cells in G1 (MCF7 [1]; 48 hrs): 75.8 (2.1)
- proportion of cells in G2 (MCF7 [1]; 48 hrs): 12.4 (2.5)
- proportion of cells in S (MCF7 [1]; 48 hrs): 11.9 (2.3)
- proportion of cells in G1 (MDA-MB-231 [2]; 24 hrs): 64.6 (2.0)
- proportion of cells in G2 (MDA-MB-231 [2]; 24 hrs): 27.7 (2.3)
- proportion of cells in S (MDA-MB-231 [2]; 24 hrs): 7.7
- proportion of cells in G1 (MDA-MB-231 [2]; 48 hrs): 65.0 (4.1)
- proportion of cells in G2 (MDA-MB-231 [2]; 48 hrs): 25.2 (3.3)
- proportion of cells in S (MDA-MB-231 [2]; 48 hrs): 9.8
- dead cells (AnnexinV/PI) (BxPC3; 5 μM): 37.8 (16.1) %
- dead cells (AnnexinV/PI) (OVCAR; 1 μM): 31.6 (10.3) %
- dead cells (AnnexinV/PI) (OVCAR; 2 μM): 39.7 (9.8) %
- dead cells (AnnexinV/PI) (OVCAR; 5 μM): 52.2 (17.5) %
- dead cells (AnnexinV/PI) (non malignant cells MRC5; 1 μM): 14.5 (1.7) %
- dead cells (AnnexinV/PI) (non malignant cells MRC5; 2 μM): 19.6 (1.9) %
- dead cells (AnnexinV/PI) (non malignant cells MRC5; 5 μM): 15.0 (2.0) %
- dead cells (AnnexinV/PI) (non-malignant HFP1 cells; 1 μM): 12.3 (0.9) %
- dead cells (AnnexinV/PI) (non-malignant HFP1 cells; 2 μM): 13.6 (1.4) %
- dead cells (AnnexinV/PI) (non-malignant HFP1 cells; 5 μM): 23.3 (1.1) %
- concentrations at which toxic effect could be detected (non-malignant HFP1 cells; non-malignant HFP1 cells): higher than 5 μM
- Oxygen consumption rate, Basal (MCF7 cells; 5 μM, 1 h preincubation): 39.9 (5.8) pmol*min^−1 10.000 cells^−1
- Oxygen consumption rate, Maximal (MCF7 cells; 5 μM, 1 h preincubation): 20.7 (4.5) pmol*min^−1 10.000 cells^−1
- Oxygen consumption rate, Proton-leak (MCF7 cells; 5 μM, 1 h preincubation): 33.1 (4.7) pmol*min^−1 10.000 cells^−1
- Oxygen consumption rate, Basal (MCF7 cells; 5 μM, immediate addition): 52.4 (9.2) pmol*min^−1 10.000 cells^−1
- Oxygen consumption rate, Maximal (MCF7 cells; 5 μM, immediate addition): 29.7 (5.8) pmol*min^−1 10.000 cells^−1
- Oxygen consumption rate, Proton-leak (MCF7 cells; 5 μM, immediate addition): 43.5 (7.6) pmol*min^−1 10.000 cells^−1
- Oxygen consumption rate, Basal (MCF7 cells; 10 μM, 1 h preincubation): 30.9 (3.1) pmol*min^−1 10.000 cells^−1
- Oxygen consumption rate, Maximal (MCF7 cells; 10 μM, 1 h preincubation): 17.4 (3.8) pmol*min^−1 10.000 cells^−1
- Oxygen consumption rate, Proton-leak (MCF7 cells; 10 μM, 1 h preincubation): 25.9 (3.1) pmol*min^−1 10.000 cells^−1
- Oxygen consumption rate, Basal (MCF7 cells; 10 μM, immediate addition): 49.6 (9.6) pmol*min^−1 10.000 cells^−1
- Oxygen consumption rate, Maximal (MCF7 cells; 10 μM, immediate addition): 26.3 (5.4) pmol*min^−1 10.000 cells^−1
- Oxygen consumption rate, Proton-leak (MCF7 cells; 10 μM, immediate addition): 37.3 (6.1) pmol*min^−1 10.000 cells^−1
- effect on cellular respiration (MCF7 cells; OCR, Seahorse): marked inhibition of cellular respiration
- MitoSOX mean fluorescence (MCF7 [3]; 5 min, MCF7 (0 min = 100)): 176.5 (15.0)
- MitoSOX mean fluorescence (MCF7 [3]; 10 min, MCF7): 177.6 (26.1)
- MitoSOX mean fluorescence (MCF7 [3]; 15 min, MCF7): 191.6 (47.0)
- MitoSOX mean fluorescence (MCF7 [3]; 30 min, MCF7): 230.8 (85.2)
- MitoSOX mean fluorescence (MCF7 [3]; 60 min, MCF7): 235.9 (99.3)
- MitoSOX mean fluorescence (MCF7 [3]; 120 min, MCF7): 171.1 (17.6)
- MitoSOX mean fluorescence (MCF7 [3]; 180 min, MCF7): 165.4 (8.9)
- MitoSOX mean fluorescence (MCF7 [3]; 240 min, MCF7): 207.7 (18.5)
- MitoSOX mean fluorescence (MDA-MB-231 [4]; [9]): 134.7 (36.9)
- MitoSOX mean fluorescence (MDA-MB-231 [4]; 10 min, MDA-MB-231): 196.7 (41.5)
- MitoSOX mean fluorescence (MDA-MB-231 [4]; 15 min, MDA-MB-231): 284.7 (103.2)
- MitoSOX mean fluorescence (MDA-MB-231 [4]; 30 min, MDA-MB-231): 379.1 (76.9)
- MitoSOX mean fluorescence (MDA-MB-231 [4]; 60 min, MDA-MB-231): 439.1 (83.0)
- MitoSOX mean fluorescence (MDA-MB-231 [4]; 120 min, MDA-MB-231): 588.2 (14.11)
- MitoSOX mean fluorescence (MDA-MB-231 [4]; 180 min, MDA-MB-231): 560.8 (27.5)
- MitoSOX mean fluorescence (MDA-MB-231 [4]; 240 min, MDA-MB-231): 612.5 (37.5)
- DCF-DA mean fluorescence (MCF7 [5]; 5 min, MCF7 (0 min = 100)): 161.3 (29.8)
- DCF-DA mean fluorescence (MCF7 [5]; 10 min, MCF7): 172.0 (18.9)
- DCF-DA mean fluorescence (MCF7 [5]; 15 min, MCF7): 283.8 (36.6)
- DCF-DA mean fluorescence (MCF7 [5]; 30 min, MCF7): 857.2 (299.0)
- DCF-DA mean fluorescence (MCF7 [5]; 60 min, MCF7): 1435.0 (452.9)
- DCF-DA mean fluorescence (MDA-MB-231 [6]; [9]): 129.9 (17.4)
- DCF-DA mean fluorescence (MDA-MB-231 [6]; 10 min, MDA-MB-231): 207.8 (94.2)
- DCF-DA mean fluorescence (MDA-MB-231 [6]; 15 min, MDA-MB-231): 258.3 (71.2)
- DCF-DA mean fluorescence (MDA-MB-231 [6]; 30 min, MDA-MB-231): 437.5 (105.9)
- DCF-DA mean fluorescence (MDA-MB-231 [6]; 60 min, MDA-MB-231): 529.5 (176.1)
- dead cells (AnnexinV/PI) (MCF7 [7]; 5 μM, +Fe^+3 (pre-loaded with iron at a 2:1 ratio)): 24.3 (1.1) %
- dead cells (AnnexinV/PI) (MCF7 [7]; 5 μM, alone): 38.5 (8.8) %
- dead cells (AnnexinV/PI) (MCF7 [7]; 10 μM, +Fe^+3 (pre-loaded with iron at a 2:1 ratio)): 25.7 (2.5) %
- dead cells (AnnexinV/PI) (MCF7 [7]; 10 μM, alone): 46.6 (7.8) %
- effect on tumor growth ([8]; 2 mg/kg intra-peritoneally, twice per week for 21 days): significantly slows down the tumor growth
- relative tumor size compared to day 0 ([8]; day 4, 2 mg/kg intra-peritoneally): 1.18 (0.3)
- relative tumor size compared to day 0 ([8]; day 7, 2 mg/kg intra-peritoneally): 2.04 (0.3)
- relative tumor size compared to day 0 ([8]; day 10, 2 mg/kg intra-peritoneally): 3.00 (0.4)
- relative tumor size compared to day 0 ([8]; day 14, 2 mg/kg intra-peritoneally): 4.90 (0.8)
- relative tumor size compared to day 0 ([8]; day 17, 2 mg/kg intra-peritoneally): 4.44 (0.3)
- relative tumor size compared to day 0 ([8]; day 21, 2 mg/kg intra-peritoneally): 5.12 (0.6)

SMILES: O=C(O)c1ccc(-n2nc(-c3ccccc3O)nc2-c2ccccc2O)cc1 [DFX, deferasirox, reference compound]
- dead cells (AnnexinV/PI) (BxPC3; 500 μM): 45.8 (21.3) %
- dead cells (AnnexinV/PI) (OVCAR; 500 μM): 59.7 (4.6) %
- dead cells (AnnexinV/PI) (non malignant cells MRC5; 500 μM): 43.7 (7.7) %
- dead cells (AnnexinV/PI) (non-malignant HFP1 cells; 500 μM): 35.6 (1.5) %
- dead cells (AnnexinV/PI) (MCF7 [7]; 500 μM): 85.2 (3.3) %
